Measurements from US20160194274A1, “PHENANTHRENE DERIVATIVES FOR USE AS MEDICAMENTS” (VALENTIA BIOPHARMA, priority 2012, published 2016).
Read-outs that look alike come from different tables or passages of the source.

Experiments:
[1] = test system: ribonuclear foci in MyoD transformed fibroblasts derived from DM1 patients (>300 CTG repeats); assay: FISH detection of aberrant ribonuclear foci in human DM1 fibroblasts; format: cell-based; conditions: 24 h treatment, vs no treatment
Protocol: FIG. 1. Quantification of aberrant ribonuclear foci (DM1 disease hallmark) in human DM1 fibroblasts. Treatments with the compounds of Formula I were performed (VLT002, VLT015, VLT025, VLT024, VLT042, VLT040, VLT023, VLT026, VLT048, VLT045, VLT043, VLT049, VLT051 VLT053 and VLT056). (A) Number (medium) of foci/nuclei (No treatment vs. compound treatment). (B) Number of cells without foci (No treatment vs. compound treatment). n=100 minimum number of cells counted. T-Student test: * indicates p-value <0.05 ** p-value p<0.005 *** p-value p<0.0005.
After screening identification of the compounds of the invention (see FIG. 10), main validation was done using Fluorescence In Situ Hybridization (FISH) detection of aberrant aggregation of ribonuclear foci in cell lines from DM1 patients (see FIG. 1) and in DM1 Drosophila model (see FIG. 2) (Garcia-Lopez et al., Proc. Natl. Acad. Sci. USA. 108(29):11866-71 (2011)). Briefly, regarding human cells, it was used MyoD transformed fibroblasts derived from clinically diagnosed DM1 patients (>300 CTG repeats) routinely growing in DMEM supplemented with 10% heat-inactivated fetal bovine serum and maintained at 37° C. in a humidified incubator containing 5% CO2. To detect ribonuclear foci, cells were cultured over cover-slides in flat bottomed 24-well plates, after 24 h compounds of the invention were added to the cells at desiderate concentration, 24 h later in situ hybridization was done by fixing with 4% paraformaldehyde (PFA) 15 min at room temperature, and washed and stored in 70% ethanol. Cells were rehydrated with PBS and pre-hybridized 10 min at room temperature with a pre-hybridization buffer (formamide 30%, 2× saline-sodium citrate buffer (SSC)). Hybridization was performed in a light-proof wet chamber using the same pre-hybridization buffer supplemented with 0.02% bovine serum albumin (BSA), 1 mg/ml yeast tRNA (Sigma), 2 mM sodium (meta)vanadate, 1 mg/ml sperm DNA, 10% dextran sulfate and 1 ng/μl RNase free HPCL-purified Cy3-labeled (CAG)10 RNA. After hybridization cells were washed 2×15 minutes at 45° C. with the pre-hybridization buffer and washed with 1×PBS at room temperature. Slides were mounted with Vectashield solution with DAPI and number of foci by cell and number of cells with/without foci (see FIG. 1) were counted in a minimum of 100 cells for each treatment and concentration tested with a 63× objective in a Leica microscope. Same FISH approach was performed in Drosophila DM1 flies, where thoraces were embedded in OCT and transversal sections were taken with a Leica CM 15105 cryomicrotome. Sections were processed for in situ hybridization and counting for number of foci by cell with the same Cy3-labeled (CAG)10 probe (see FIG. 2).

[2] = test system: (CUG)23 RNA hairpin; assay: 2-Aminopurine fluorescence assay of hairpin RNA unfolding; format: biochemical; conditions: (CUG)23 RNA, dose-range
Protocol: FIG. 7. […] Measurements of the fluorescence emitted (Y-axis), measured as relative fluorescence units (RFU), by 2-aminopurine in a (CUG)23 RNA (1 μM) in the presence of different compounds (dose-range approach), relative to the fluorescence emitted by the free RNA. […] These effects were not observed when incubating the RNA with DMSO (not shown), or with the small molecule pentamidine, published as a compound able to disrupt MBNL1 binding to CUG hairpins (Warf M B et al. Proc. Natl. Acad. Sci. USA 106:18551-56 (2009)). * indicates p-value <0.05 ** p-value <0.005 *** p-value p<0.0005.
Aminopurine Fluorescence assay to detect hairpin double strand RNA unfolding. An aliquot of 2-aminopurine (2AP)-CUG23 RNA (1 μM in binding buffer) was heated at 90° C. for 3 min, placed on ice, and further diluted to 30 nM in a final volume of 1 mL in binding buffer.

[3] = test system: indirect flight muscles of MHC-Gal4/+; UAS-i480CTGs/+ flies; assay: Drosophila muscle histology (IFM muscle area); format: in vivo; conditions: 100 μM, adult IFM
Protocol: FIG. 3. Representative bright field microscopy images of transversal sections of resin-embedded adult IFM (indirect flight muscles) of MHC-Gal4/+; UAS-i480CTGs/+ flies that had been treated with DMSO (left) or with VLT024 (100 μM) (right).
Additional assays involved: • Reverse Transcription-PCR (RT-PCR) to detect levels of normal/aberrant splicing events in specific genes. This approach was performed in human cells from patients (see FIG. 5) or from DM1 mouse (see FIG. 8 up) (HSA^LR, Mankodi A et al., Science, 289:1769-1773 (2000)) tissues (skeletal muscle), from which total RNA was extracted from ˜0.5-1.5×10^5 cells using the Zygem Tissue Plus kit. Serca 1, Cypher or cTNNT genes reverse transcription were performed and quantification of normal/aberrant spliced band forms was obtained (ImageJ software) after running PCR products in 2% agarose gels. As shown in FIGS. 5 and 8 compounds of the invention are able to recover disease phenotypes. • Drosophila Muscle Histology, where five-day old Drosophila thoraces were embedded in Epon for transversal, semi-thin sectioning. Muscle area was quantified (see FIG. 3) by binarizing images (equal dimensions) and quantifying pixels (%) within muscle tissue with ImageJ software. […] A minimum of 8 flies were analyzed in each case.

[4] = test system: FAM-(CUG)10 RNA; assay: Gel retardation assay (fluorescence EMSA) with FAM-(CUG)10; format: binding
Protocol: FIG. 6. Study of the binding of some compounds of Formula I (VLT002, VLT025 and VLT026) to FAM-(CUG)10 (repeat tract present in DM1, HDL2, SCA8 diseases) by means of gel retardation assays.
Fluorescence Electrophoretic Mobility Shift Assay to test RNA-compound binding. Briefly, an aliquot of carboxyfluorescein (FAM)-CUG10 RNA (DM1, HDL2, SCA8; see FIG. 6) was heated at 70° C. for 5 min and diluted to 300 nM. The binding reaction with compounds was then carried out as described in (Garcia-Lopez A et al. Proc. Natl. Acad. Sci. USA. 108(29):11866-71 (2011)). The reaction mix was loaded onto 8% polyacrylamide nondenaturing gels, and electrophoresis was conducted at 4° C. in TB 1× for approximately 30 min at 240V, followed by fluorescence visualization. Quantification of the free RNA band intensity was carried out using the ImageJ software. A non-linear regression analysis was used to calculate EC50, based on a total of three experimental replicates. Same approach was developed with (FAM)-CCUG8 (DM2), CAG10 (SCA3), CGG10 (FXTAS), GGGGCC5 (ALS/FSD), UGGAA6 (SCA31) probes (see FIG. 9).

[5] = test system: MBNL1; assay: Visualization and quantification of MBNL1 release in DM1 fibroblasts; format: cell-based, human; conditions: 100 μM
Protocol: FIG. 4. Visualization and quantification of MBNL1 release (A). Visualization of MBNL1 release for VLT002: Upper row: Untreated DM1 fibroblasts with MBNL1 localizing as ribonuclear foci (see dots in middle and right pictures) to the nucleus (DAPI, detected as gray spherical shadow in left and right pictures). […] (B) Quantification of the area (into the nucleus), where MBNL1 present (Photoshop software), reflects the MBNL1 release after VLT002, VLT025, VLT045, VLT049 and VLT040 treatment (100 μM).
At the same time human cells were recollected for foci counting. Some (150,000-300,000) were prepared for Muscleblind (MBNL1) detection (see FIG. 4). After PBS washes, cells were probed overnight, at 4° C. with anti-MBNL1 antibody (1:5000 dilutions, A2764 antibody) in 1×PBS. After washing cells with 1×PBS, cells were incubated with goat anti-rabbit Alexa 488 (1:500 dilution) for 2 h at RT. Cells were washed 2 times, for 10 min at room temperature with 1×PBS and then mounted onto glass slides using a hard-set mounting media that contains DAPI (Vectashield). Cells were imaged on a Leica microscope.

[6] = cited from earlier work
[7] = dose range of 5-40 mg/kg, compared to mexiletine

Compound | aberrant ribonuclear foci: number of foci/nuclei (A) and/or number of cells without foci (B) [1] | also measured
COc1cc2c(cc1O)CC1c3c(cc(O)c(OC)c3-2)CCN1C (stereo not drawn) [VLT015] | significant reduction | –
COc1cc(CCN(C)C)c2ccc3c(c2c1OC)=CC(OC)C(OC)C=3 (stereo not drawn) [VLT023] | significant reduction | modification of the hairpin loops formed by the CUG repeats (2-AP fluorescence) [2]: modify the hairpin loops
COc1cc2ccc3c(CC[N+](C)(C)C)cc(OC)c(OC)c3c2cc1OC [VLT024] | significant reduction | muscle area relative to DMSO-treated flies [3]: significant increase
COc1cc2c(ccc3c(CCN(C)Cc4ccccc4)cc(OCc4ccccc4)c(OC)c32)cc1OCc1ccccc1 [VLT026] | significant reduction | binding to FAM-CUG10 [4]: bind to FAM-CUG10
C[N+]1(C)CCc2cc3c(c4c2c1cc1ccccc14)OCO3 [VLT042] | significant reduction | –
CC(=O)N1CCc2cc3c(c4c2C1Cc1ccccc1-4)OCO3 (stereo not drawn) [VLT043] | significant reduction | –
O=C1c2ccccc2-c2c3c(cc4ccnc1c24)OCO3 [VLT045] | significant reduction | MBNL1 sequestration / MBNL1 release (nuclear area where MBNL1 present) [5]: relieve MBNL1 sequestration; formation of foci (MBNL1 ribonuclear foci) [5]: effectively reduce the formation of foci
CCNC(=O)Oc1cc2c(cc1OC)-c1c(OC)c(OC(=O)NCC)cc3c1C(C2)N(C)CC3 (stereo not drawn) [VLT048] | significant reduction | –
COc1cc2c3c(c1OC)-c1ccccc1CC3N(C)CC2 (stereo not drawn) [VLT049] | significant reduction | MBNL1 sequestration / MBNL1 release (nuclear area where MBNL1 present) [5]: relieve MBNL1 sequestration; formation of foci (MBNL1 ribonuclear foci) [5]: effectively reduce the formation of foci
COc1cc(CC[N+](C)(C)C)c2ccc3ccccc3c2c1OC [VLT051] | significant reduction | –
C[N+](C)(C)CCc1cc(O)c(O)c2c1ccc1ccccc12 [VLT053] | significant reduction | –
CC(=O)Oc1cc2ccc3c(CCN(C)C)cc(OC(C)=O)c(OC(C)=O)c3c2cc1OC(C)=O [VLT056] | significant reduction | –
CC(C)(C)NCC(O)c1cc(Cl)c(N)c(Cl)c1 (stereo not drawn) [clenbuterol] | – | antimyotonic effect [6, 7]: time-dependent antimyotonic effect
CC(C)(C)NCC(O)COc1cccc2c1CC(O)C(O)C2 (stereo not drawn) [nadolol] | – | antimyotonic effect ([6]; in vivo): did not show any significant antimyotonic effect
N=C(N)c1ccc(OCCCCCOc2ccc(C(=N)N)cc2)cc1 [pentamidine, reference compound] | – | modification of the hairpin loops formed by the CUG repeats (2-AP fluorescence) [2]: not observed
CC(C)NCC(O)COc1cccc2ccccc12 (stereo not drawn) [propranolol] | – | antimyotonic effect [6, 7]: time-dependent antimyotonic effect
CC(C)(C)NCC(O)c1ccc(O)c(CO)c1 (stereo not drawn) [salbutamol] | – | antimyotonic effect ([6]; in vivo): did not show any significant antimyotonic effect
